Assay results reported in PubChem BioAssay (NCI).
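Five compound concentrations were applied to cells in 96-well plates for 48 hours; endpoints were derived by simple linear interpolation of the resulting dose-response curve. GI50 is the concentration that inhibits growth by half. TGI is the concentration that stops growth completely.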

Key:
Assay in all cases: growth of human tumour cells (NCI), 48 h
[1] = system: DU-145 prostate
[2] = system: SK-MEL-28 melanoma
[3] = system: 786-0 renal
[4] = system: RXF 393 renal
[5] = system: SF-539 CNS
[6] = system: M14 melanoma
[7] = system: HCT-116 colon
[8] = system: OVCAR-8 ovarian
[9] = system: KM12 colon
[10] = system: CCRF-CEM leukemia

Structure (SMILES)	GI50 [1] [nM]	TGI [1] [nM]	GI50 [2] [nM]	TGI [2] [nM]	GI50 [3] [nM]	TGI [3] [nM]	GI50 [4] [nM]	TGI [4] [nM]	GI50 [5] [nM]	TGI [5] [nM]	GI50 [6] [nM]	TGI [6] [nM]	GI50 [7] [nM]	TGI [7] [nM]	GI50 [8] [nM]	TGI [8] [nM]	GI50 [9] [nM]	GI50 [10] [nM]	TGI [10] [nM]	TGI [9] [nM]
COc1cc2c(cc1O)c(=O)n(CCN(C)C)c1c3cc4c(cc3ncc21)OCO4	< 10	1940	53	1010	< 10	29.1	31.8	116	< 10	22.3	< 10	53.5	11.7	1250	< 11.6	2520	177	< 10	> 26800	–
CC[C@H]1CCC/C=C/[C@@H]2C[C@H](O)C[C@H]2[C@H](O)/C=C/C(=O)O1	179	> 100000	21.9	134	20.4	42	16	37.9	60	> 100000	37.6	> 100000	32.8	119	43.2	> 100000	22.7	45.5	> 100000	52.3
CCc1cccc(NC(=O)Nc2ccc(Oc3ccc4nc(NC(=O)OC)[nH]c4c3)cc2)c1	4940	> 15400	3520	9490	7000	> 25000	2050	10900	5080	> 25000	3130	12600	3390	> 14900	5790	> 18800	98.5	6200	> 25000	4940
COc1ccc(-c2cc(-c3ccc(OC)cc3)nc(NCCCNc3ccnc4cc(Cl)ccc34)n2)cc1	1880	3380	1730	3210	1620	2990	1320	2740	7160	21400	1740	3280	1450	2760	1810	3570	1780	2260	6980	3280
